Results as given in patent publication US20120291159A1, “Azoline Compounds for Combating Invertebrate Pests” (BASF SE, priority 2009, published 2012).
Where a name gives a salt, the structure may show the parent alone.

Legend:
Type in all cases: in vivo
[1] = system: Vetch Aphid (Megoura viciae); assay: Vetch aphid leaf disk microtiter test (B.9); conditions: foliar, 120 h, adult aphids on broad bean leaf disks, 5 days, read-out: mortality in comparison with untreated controls
Procedure: B.9 Vetch Aphid (Megoura viciae)
For evaluating control of vetch aphid (Megoura viciae) through contact or systemic means the test unit consisted of 24-well-microtiter plates containing broad bean leaf disks.
The compounds were formulated using a solution containing 75% v/v water and 25% v/v DMSO. Different concentrations of formulated compounds were sprayed onto the leaf disks at 2.5 μl, using a custom built micro atomizer, at two replications.
After application, the leaf disks were air-dried and 5-8 adult aphids placed on the leaf disks inside the microtiter plate wells. The aphids were then allowed to suck on the treated leaf disks and incubated at about 23±1° C. and about 50±5% relative humidity for 5 days. Aphid mortality and fecundity was then visually assessed.

[2] = system: Boll Weevil (Anthonomus grandis); assay: Boll weevil microtiter diet test (B.11); conditions: 120 h, egg and larval mortality after 5 days, read-out: mortality in comparison with untreated controls
Procedure: B.11 Boll Weevil (Anthonomus grandis)
For evaluating control of boll weevil (Anthonomus grandis) the test unit consisted of 24-well-microtiter plates containing an insect diet and 20-30 A. grandis eggs.
The compounds were formulated using a solution containing 75% v/v water and 25% v/v DMSO. Different concentrations of formulated compounds were sprayed onto the insect diet at 20 μl, using a custom built micro atomizer, at two replications.
After application, microtiter plates were incubated at about 23±1° C. and about 50±5% relative humidity for 5 days. Egg and larval mortality was then visually assessed.

[3] = system: Mediterranean Fruitfly (Ceratitis capitata); assay: Mediterranean fruitfly microtiter diet test (B.4); conditions: 120 h, egg and larval mortality after 5 days, read-out: mortality in comparison with untreated controls
Procedure: B.4 Mediterranean Fruitfly (Ceratitis capitata)
For evaluating control of Mediterranean fruitfly (Ceratitis capitata) the test unit consisted of microtiter plates containing an insect diet and 50-80 C. capitata eggs. The compounds were formulated using a solution containing 75% v/v water and 25% v/v DMSO. Different concentrations of formulated compounds were sprayed onto the insect diet at 5 μl, using a custom built micro atomizer, at two replications. After application, microtiter plates were incubated at about 28±1° C. and about 80±5% relative humidity for 5 days. Egg and larval mortality was then visually assessed.

[4] = system: Tobacco Budworm (Heliothis virescens); assay: Tobacco budworm cotton plant spray test (B.10); conditions: 2500 ppm; larvae on sprayed cotton, 4 days after treatment
Procedure: B.10 Tobacco Budworm (Heliothis virescens) I
(§1) The active compounds were formulated in cyclohexanone as a 10,000 ppm solution supplied in tubes. The tubes were inserted into an automated electrostatic sprayer equipped with an atomizing nozzle and they served as stock solutions for which lower dilutions were made in 50% acetone:50% water (v/v). A nonionic surfactant (Kinetic®) was included in the solution at a volume of 0.01% (v/v).
Cotton plants were grown 2 plants to a pot and selected for treatment at the cotyledon stage. Test solutions were sprayed onto the foliage by an automated electrostatic plant sprayer equipped with an atomizing spray nozzle. The plants were dried in the sprayer fume hood and then removed from the sprayer. Each pot was placed into perforated plastic bags with a zip closure. About 10 to 11 budworm larvae were placed into the bag and the bags zipped closed. Test plants were maintained in a growth room at about 25° C. and about 20-40% relative humidity for 4 days, avoiding direct exposure to fluorescent light (24 hour photoperiod) to prevent trapping of heat inside the bags. Mortality and reduced feeding were assessed 4 days after treatment, compared to untreated control plants.

[5] = system: Silverleaf Whitefly (Bemisia argentifoli); assay: Silverleaf whitefly cotton plant spray test (B.6); conditions: 300 ppm; whitefly adults on sprayed cotton, 3 days after treatment
Source text: B.6 Silverleaf Whitefly (Bemisia argentifoli)
as §1
Cotton plants at the cotyledon stage (one plant per pot) were sprayed by an automated electrostatic plant sprayer equipped with an atomizing spray nozzle. The plants were dried in the sprayer fume hood and then removed from the sprayer. Each pot was placed into a plastic cup and about 10 to 12 whitefly adults (approximately 3-5 days old) were introduced. The insects were collected using an aspirator and a nontoxic Tygon® tubing connected to a barrier pipette tip. The tip, containing the collected insects, was then gently inserted into the soil containing the treated plant, allowing insects to crawl out of the tip to reach the foliage for feeding. Cups were covered with a reusable screened lid. […] Mortality was assessed 3 days after treatment, compared to untreated control plants.

[6] = system: Cowpea Aphid (Aphis craccivora); assay: Cowpea aphid spray test on potted cowpea plants (B.2); conditions: 100 ppm; sprayed cowpea plants; assessed after 24, 72 and 120 hours
Procedure: If not otherwise specified the test solutions were prepared as follow:
The active compound was dissolved at the desired concentration in a mixture of 1:1 (vol:vol) distilled water:acteon. The test solution was prepared the day it was used and in general at concentrations of […] (wt/vol).
B.2 Cowpea Aphid (Aphis craccivora)
Potted cowpea plants colonized with approximately 100-150 aphids of various stages were sprayed after the pest population has been recorded. Population reduction was assessed after 24, 72, and 120 hours.

[7] = system: Orchid Thrips (Dichromothrips corbetti); assay: Orchid thrips floral-immersion test (B.5); conditions: 500 ppm, adult thrips, after 4 days
Procedure: B.5 Orchid Thrips (Dichromothrips corbetti)
Dichromothrips corbetti adults used for bioassay are obtained from a colony maintained continuously under laboratory conditions. […]
Thrips potency of each compound is evaluated by using a floral-immersion technique. Plastic petri dishes are used as test arenas. All petals of individual, intact orchid flowers are dipped into treatment solution and allowed to dry. Treated flowers are placed into individual petri dishes along with 10-15 adult thrips. The petri dishes are then covered with lids. All test arenas are held under continuous light and a temperature of about 28° C. for duration of the assay. After 4 days, the numbers of live thrips are counted on each flower, and along inner walls of each petri dish. The level of thrips mortality is extrapolated from pre-treatment thrips numbers.

Compound | mortality at 2500 ppm [1] [%] | mortality at 2500 ppm [2] [%] | mortality at 2500 ppm [3] [%] | other results
CC(=O)NCc1cccc(C2=NOC(c3cc(Cl)cc(Cl)c3)(C(F)(F)F)C2)c1 (centres unmarked) [compound 3-3, N-{3-[5-(3,5-dichloro-phenyl)-5-trifluoromethyl-4,5-dihydro-isoxazol-3-yl]-benzyl}-acetamide] | ≥ 75 | ≥ 75 | ≥ 75 | 
[O-][S+](c1cccc(C2=NOC(c3cc(Cl)cc(Cl)c3)(C(F)(F)F)C2)c1)C(F)(F)F (centres unmarked) [compound 6-2] |  |  |  | mortality in comparison with untreated controls [4]: at least 75%
NCc1cccc(C2=NOC(c3cc(Cl)cc(Cl)c3)(C(F)(F)F)C2)c1 (centres unmarked) [compound 3-1, 3-[5-(3,5-dichloro-phenyl)-5-trifluoromethyl-4,5-dihydro-isoxazol-3-yl]-benzylamine hydrochloride] | ≥ 75 | ≥ 75 | ≥ 75 | 
CCCC(=O)OCc1cccc(C2=NOC(c3cc(Cl)cc(Cl)c3)(C(F)(F)F)C2)c1 (centres unmarked) [compound 3-9] |  |  |  | mortality in comparison with untreated controls [5]: at least 75%
CCC(=O)NCc1cccc(C2=NOC(c3cc(Cl)cc(Cl)c3)(C(F)(F)F)C2)c1 (centres unmarked) [compound 3-2, N-{3-[5-(3,5-dichloro-phenyl)-5-trifluoromethyl-4,5-dihydro-isoxazol-3-yl]-benzyl}-propionamide] | ≥ 75 | ≥ 75 | ≥ 75 | 
CN1CCC(Oc2cccc(C3=NOC(c4cc(Cl)cc(Cl)c4)(C(F)(F)F)C3)c2)C1=O (centres unmarked) [compound 5-1] |  |  |  | mortality in comparison with untreated controls [6]: at least 75%
CCCC(=O)NCc1cccc(C2=NOC(c3cc(Cl)cc(Cl)c3)(C(F)(F)F)C2)c1 (centres unmarked) [compound 3-5, N-{3-[5-(3,5-dichloro-phenyl)-5-trifluoromethyl-4,5-dihydro-isoxazol-3-yl]-benzyl}-butyramide] | ≥ 75 | ≥ 75 | ≥ 75 | 
CSCC(=O)NCc1cccc(C2=NOC(c3cc(Cl)cc(Cl)c3)(C(F)(F)F)C2)c1 (centres unmarked) [compound 3-4, N-{3-[5-(3,5-dichloro-phenyl)-5-trifluoromethyl-4,5-dihydro-isoxazol-3-yl]-benzyl}-2-methylsulfanyl-acetamide] |  |  | ≥ 75 | 
O=C(NCC(F)(F)F)c1cc(C2=NOC(c3cc(Cl)cc(Cl)c3)(C(F)(F)F)C2)ccn1 (centres unmarked) [compound 2-3] |  |  |  | mortality in comparison with untreated controls [7]: at least 75%
